Where two headings read alike, the source gives them in different places.
How the values were obtained:
COX-2 [1] = target: T1, COX-2 (Homo sapiens, UniProt P35354); assay: cell-based; conditions: human whole blood, LPS-induced PGE2, 24 h; read-out: COX-2 (IC50 mM) HWB
T1 sequence (P35354 18-604): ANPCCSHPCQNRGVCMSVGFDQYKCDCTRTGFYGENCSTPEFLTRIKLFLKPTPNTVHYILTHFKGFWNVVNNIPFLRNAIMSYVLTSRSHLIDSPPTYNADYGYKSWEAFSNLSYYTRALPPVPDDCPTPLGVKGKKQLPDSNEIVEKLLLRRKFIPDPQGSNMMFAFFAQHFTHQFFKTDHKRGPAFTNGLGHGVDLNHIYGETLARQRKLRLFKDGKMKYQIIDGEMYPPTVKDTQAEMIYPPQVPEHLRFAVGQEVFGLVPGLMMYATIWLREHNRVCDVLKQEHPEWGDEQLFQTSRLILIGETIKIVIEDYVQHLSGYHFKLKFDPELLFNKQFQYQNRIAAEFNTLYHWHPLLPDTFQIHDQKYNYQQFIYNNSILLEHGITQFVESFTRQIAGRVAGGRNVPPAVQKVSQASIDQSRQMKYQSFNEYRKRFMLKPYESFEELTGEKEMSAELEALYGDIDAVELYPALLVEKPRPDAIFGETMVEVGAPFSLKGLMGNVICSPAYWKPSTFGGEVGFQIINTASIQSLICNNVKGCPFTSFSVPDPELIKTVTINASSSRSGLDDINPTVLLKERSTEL
Excerpt: (§1) As well, platelets in whole blood contain a large amount of the COX-1 enzyme. Immediately following blood clotting, platelets are activated through a thrombin-mediated mechanism. This reaction results in the production of thromboxane B2 (TxB2) via activation of COX-1. Thus, the effect of test compounds on TxB2 levels following blood clotting can be examined and used as an index for COX-1 activity. Therefore, the degree of selectivity by the test compound can be determined by measuring the levels of PGE2 after LPS induction (COX-2) and TxB2 following blood clotting (COX-1) in the same assay.
Fresh blood is collected in heparinized tubes by venipuncture from both male and female volunteers. The subjects have no apparent inflammatory conditions and have not taken any NSAIDs for at least 7 days prior to blood collection. Plasma is immediately obtained from a 2mL blood aliquot to use as blank (basal levels of PGE2). The remaining blood is incubated with LPS (100 μg/ml final concentration, Sigma Chem, #L-2630 from E. coli; diluted in 0.1% BSA (Phosphate buffered saline) for 5 minutes at room temperature. Five hundred […] aliquots of blood are incubated with either 2 μL of vehicle (DMSO) or 2 μL of a test compound at final concentrations varying from 10 nM to 30 μM for 24 hours at 37° C. At the end of the incubation, the blood is centrifuged at 12,000×g for 5 minutes to obtain plasma. A 100 μL aliquot of plasma is mixed with 400 μL of methanol for protein precipitation. The supernatant is obtained and is assayed for PGE2 using a radioimmunoassay kit (Amersham, RPA#530) after conversion of PGE2 to its methyl oximate derivative according to the manufacturer's procedure. […]

COX-1 [2] = target: T2, COX-1 (Homo sapiens, UniProt P23219); assay: Assay of COX-1 activity from U937 cell microsomes (PGE2); format: biochemical; design: Assay of COX-1 Activity from U937 Cell Microsomes; endogenous in cells; host or cells: U937 cells, 100,000 x g microsomal pellet; conditions: 15 min preincubation
Method: U 937 cells are pelleted by centrifugation at 500×g for 5 min and washed once with phosphate-buffered saline and repelleted. Cells are resuspended in homogenization buffer consisting of 0.1 M Tris-HCl, pH 7.4, 10 mM EDTA, […] leupeptin, 2 μg/ml soybean trypsin inhibitor, 2 μg/ml aprotinin and 1 mM phenyl methyl sulfonyl fluoride. The cell suspension is sonicated 4 times for 10 sec and is centrifuged at 10,000×g for 10 min at 4° C. The supernatant is centrifuged at 100,000×g for 1 hr at 4° C. The 100,000×g microsomal pellet is resuspended in 0.1 M Tris-HCl, pH 7.4, 10 mM EDTA to approximately 7 mg protein/ml and stored at -80° C.
Microsomal preparations are thawed immediately prior to use, subjected to a brief sonication, and then diluted to a protein concentration of 125 μg/ml in 0.1 M Tris-HCl buffer, pH 7.4 containing 10 mM EDTA, 0.5 mM phenol, 1 mM reduced glutathione and 1 μM hematin. Assays are performed in duplicate in a final volume of 250 μl. Initially, 5 μl of DMSO vehicle or drug in DMSO are added to 20 μl of 0.1 M Tris-HCl buffer, pH 7.4 containing 10 mM EDTA in wells of a 96-deepwell polypropylene titre plate. 200 μl of the microsomal preparation are then added and pre-incubated for 15 min at room temperature before addition of 25 μl of […] arachidonic acid in […] Tris-HCl and 10 mM EDTA, pH 7.4. Samples are incubated for 40 min at room temperature and the reaction is stopped by the addition of 25 μl of 1 N HCl. Samples are neutralized with 25 μl of 1 N NaOH prior to quantitation of PGE2 content by radioimmunoassay (Dupont-NEN or Amersham assay kits). Cyclooxygenase activity is defined as the difference between PGE2 levels in samples incubated in the presence of arachidonic acid and ethanol vehicle.
In the assay, inhibition is determined by measuring the amount of prostaglandin E2 (PGE2) synthesized in the presence of arachidonic acid, cyclooxygenase-1 or cyclooxygenase-2 and a putative inhibitor.

COX-2 [3] = target: T1, COX-2; assay: cell-based; conditions: CHO[hCOX-2] cells, 10 μM AA, 15 min preincubation; read-out: COX-2 (IC50 mM) CHO
Method: For cyclooxygenase assays, CHO[hCOX-1] cells from suspension cultures and CHO[hCOX-2] cells prepared by trypsinization of adherent cultures are harvested by centrifugation (300×g, 10 min) and washed once in HBSS containing 15 mM HEPES, pH 7.4, and resuspended in HBSS, 15 mM HEPES, pH 7.4, at a cell concentration of 1.5×10^6 cells/ml. Drugs to be tested are dissolved in DMSO to 66.7-fold the highest test drug concentration. […] Cells (0.3×10^6 cells in 200 μl) are preincubated with 3 μl of the test drug or DMSO vehicle for 15 min at 37° C. Working solutions of peroxide-free AA (5.5 μM and 110 μM AA for the CHO [hCOX-1] and CHO [COX-2] assays, respectively) are prepared by a 10-fold dilution of a concentrated AA solution in ethanol into HBSS containing 15 mM HEPES, pH 7.4. Cells are then challenged in the presence or absence of drug with the AA/HBSS solution to yield a final concentration of 0.5 μM AA in the CHO[hCOX-1] assay and a final concentration of 10 μM AA in the CHO[hCOX-2] assay. The reaction is terminated by the addition of 10 μl 1 N HCl followed by neutralization with 20 μl of 0.5 N NaOH. The samples are centrifuged at 300 ×g at 4° C. for 10 min, and an aliquot of the clarified supernatant is appropriately diluted for the determination of PGE2 levels using an enzyme-linked immunoassay for PGE2 (Correlate PGE2 enzyme immunoassay kit, Assay Designs, Inc.). Cyclooxygenase activity in the absence of test compounds is determined as the difference in PGE2 levels of cells challenged with arachidonic acid versus the PGE2 levels in cells mock-challenged with ethanol vehicle. Inhibition of PGE2 synthesis by test compounds is calculated as a percentage of the activity in the presence of drug versus the activity in the positive control samples.

COX-1 [4] = target: T2, COX-1; assay: Human whole blood assay, COX-1 (clotting-induced TxB2 production); format: cell-based; design: platelets in whole blood contain a large amount of the COX-1 enzyme; endogenous in cells; host or cells: platelets in fresh human whole blood, clotting
Excerpt: as §1
Fresh blood is collected into vacutainers containing no anticoagulants. […] The tubes are vortexed and incubated at 37° C. for 1 hour to allow blood to clot. At the end of incubation, serum is obtained by centrifugation (12,000×g for 5 min.). A 100 μL aliquot of serum is mixed with 400 μL of methanol for protein precipitation.

[5] = U-937 cell microsomes, read-out: COX-1 (IC50 mM) U-937
[6] = human whole blood, clotting-induced TxB2, 1 h, read-out: COX-1 (IC50 mM) HWB

T2 sequence (P23219 24-599): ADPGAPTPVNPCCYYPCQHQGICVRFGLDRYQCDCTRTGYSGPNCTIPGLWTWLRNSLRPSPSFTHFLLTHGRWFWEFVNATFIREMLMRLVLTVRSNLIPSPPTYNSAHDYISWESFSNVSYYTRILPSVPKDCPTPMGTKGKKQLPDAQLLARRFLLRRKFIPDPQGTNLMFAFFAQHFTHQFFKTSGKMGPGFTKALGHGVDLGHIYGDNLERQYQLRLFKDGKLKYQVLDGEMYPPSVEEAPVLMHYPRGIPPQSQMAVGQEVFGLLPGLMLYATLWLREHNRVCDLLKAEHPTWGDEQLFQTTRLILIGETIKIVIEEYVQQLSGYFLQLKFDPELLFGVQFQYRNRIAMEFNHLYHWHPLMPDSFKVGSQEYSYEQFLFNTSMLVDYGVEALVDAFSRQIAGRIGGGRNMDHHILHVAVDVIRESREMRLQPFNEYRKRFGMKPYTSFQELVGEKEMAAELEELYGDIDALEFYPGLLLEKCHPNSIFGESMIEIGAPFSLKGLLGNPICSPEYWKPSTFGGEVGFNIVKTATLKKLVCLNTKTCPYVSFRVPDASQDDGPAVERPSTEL

SMILES | IC50 (COX-2 [1]) [mM] | IC50 (COX-1 [2]; [5]) [mM] | IC50 (COX-2 [3]) [µM] | IC50 (COX-1 [4]; [6]) [mM] | IC50 (COX-1 [2]; COX-1 (IC50 mM) U-937, U-937 cell microsomes) [mM] | IC50 (COX-1 [4]) [mM]
C[C@@H](Oc1ncc(C(F)(F)F)cc1-c1ccc(S(C)(=O)=O)cc1)C(C)(C)O [Example 17, 2-((2R)-3-Hydroxy-3-methyl-2-butyloxy)-3-(4-methylsulfonyl)phenyl-5-trifluoromethylpyridine] | < 0.0004 | > 0.01 | 0.38 | > 0.1 | – | –
C[C@@H](O)[C@@H](C)Oc1ncc(C(F)(F)F)cc1-c1ccc(S(C)(=O)=O)cc1 [Example 23, 2-((2R,3R)-3-Hydroxy-2-butyloxy)-3-(4-methylsulfonyl)phenyl-5-trifluoromethylpyridine] | 0.0005 | – | 0.05 | – | > 0.01 | > 0.1
C[C@H](CO)Oc1ncc(C(F)(F)F)cc1-c1ccc(S(C)(=O)=O)cc1 [Example 28, 2-((2R)-1-Hydroxy-2-propyloxy)-3-(4-methylsulfonyl)phenyl-5-trifluoromethylpyridine] | 0.0112 | > 0.01 | 0.04 | > 0.1 | – | –
CCC(O)(CC)[C@@H](C)Oc1ncc(C(F)(F)F)cc1-c1ccc(S(C)(=O)=O)cc1 [Example 21, 2-((2R)-3-Ethyl-3-hydroxy-2-pentyloxy)-3-(4-methylsulfonyl)phenyl-5-trifluoromethylpyridine] | 0.0047 | > 0.01 | 0.2 | > 0.1 | – | –
